From patent US20240224953A1 (Barlaa B.V., priority 2021, published 2024)
Like-named read-outs stand apart in the source and are kept apart here.

Legend:
[1] = test system: whiteleg shrimps (Litopenaeus vannamei)
Procedure: Water quality parameters, including salinity, dissolved oxygen, pH and total ammonia nitrogen (TAN) were monitored regularly in both control and treated ponds. The growth rate of the shrimps was monitored regularly. Total number was counted and mean body weight of shrimp was measured. Based on recording the weight of shrimp and counting the number of shrimps, weight gain, feed conversion ratio (FCR) and survival were calculated.

whiteleg shrimps [2] = test system: whiteleg shrimps
From the text: In […] further experiments were done in Gujarat-India on whiteleg shrimps.

whiteleg shrimp = test system: whiteleg shrimp
From the text: Trials are done in Northern part, Central part and Southern part in Vietnam, 2020-2021.

[3] = test system: Tiger shrimps (Penaeus monodon); details: three ponds, applied after each change of water every 5 days
Procedure: Tiger shrimps (Penaeus monodon), also named giant tiger prawn, asian tiger prawn or black tiger shrimp, is one of the most popular cultured shrimp species in the world.
A small scale trial was carried out in 2019 in Chittagong-Bangladesh in three ponds of +2.5 ha.

Pangasius hypophthalmus = assay: Experiment 7C: pond trial on Pangasius in Bangladesh; assay type: in vivo; details: overall results of the 8 ponds
From the text: Pangas belonging to the genus of medium-large catfishes, is a relatively new and fast-growing fish species that has great potential for production and export growth in Bangladesh. Polyculture of pangasius (P. hypophthalmus) with carps is the existing culture practice along with monoculture being practiced by many households in Bangladesh.
Trials have been done in 2019 in Mymensingh region on 4 ponds with an average of 1,4 ha and an average depth of 1.5 m in the dry season and 2 m. in the rainy season (May to November). For feeding standard commercial pelleted feeds were used.

trypsin gene = details: hepatopancreas, after 56 days, versus control, FIG. 2
Procedure: At the end of the grow-out period, shrimp were sampled for the growth and feed utilisation metrics. Water quality parameters were measured three times daily. At the end of the trial, shrimps were assessed for the growth performance as described below. Shrimp from each treatment group were examined and the hepato-pancreas removed carefully from 10 individual animals and processed as described below.
For RNA extraction, hepatopancreases were extracted by using trizol reagent (Invitrogen, USA). Briefly, 1 ml of trizol reagent were added into 50-100 mg of tissue samples. then, the samples were homogenized at 3,500 rpm for 1 min by using Micro Smash MS-100R (TOMY, Japan). After incubated sample at RT for 5 min, 200 μl of chloroform were added and mixed vigorous. The samples were centrifuged at 12,000 rpm at 4° C. for 15 min. after collected supernatant into new 1.5 ml tube, 1 volume of isopropanol were added and incubated at −20° C. for 2 h or O/N. Next, RNA pellets were collected by centrifuged at 12,000 rpm at 4° C. for 15 min. then, the pellets were washed with 500 μl of 75% ethanol and dried pellet at 65° C. Lastly, 30 μl of RNase free water was added for dissolved RNA pellet. RNA concentration was measured by using nanodrop spectrophotometer (Thermo Fisher Scientific, USA).

whiteleg shrimps [4] = test system: whiteleg shrimps; remark: listed apart in the source
whiteleg shrimps [5] = details: applied once or twice a day, 6 ponds
[6] = test system: Pacific Whiteleg shrimp (Litopenaeus vannamei)
Procedure: An 8-week growth trial study on Pacific Whiteleg shrimp (Litopenaeus vannamei) (1.0 g/shrimp) in duplicate was conducted in a 3,200 m2 earthen pond (100,000 shrimps per 1,600 m2) at the GAP certified private shrimp farm, Nakhon Pathom province, Thailand. […] The pond size was 2 Rai (1 Rai is 1,600 m^2). Stocking density is 100,000 shrimps/1 Rai.
Shrimp were fed by automatic feeder four times a day according to the farming standard. […] The bespoke shrimp feed specification was Crude Protein 38%, Crude Fat 7%, and diet pellet sizes of 1.5 mm; 2.0 mm; 2.5 mm that were assigned across the trial period to optimise maximum intake.

α-amylase gene = details: hepatopancreas, after 56 days, versus control, FIG. 2
Procedure: For RNA extraction, hepatopancreases were extracted by using trizol reagent (Invitrogen, USA). Briefly, 1 ml of trizol reagent were added into 50-100 mg of tissue samples. then, the samples were homogenized at 3,500 rpm for 1 min by using Micro Smash MS-100R (TOMY, Japan). After incubated sample at RT for 5 min, 200 μl of chloroform were added and mixed vigorous. The samples were centrifuged at 12,000 rpm at 4° C. for 15 min. after collected supernatant into new 1.5 ml tube, 1 volume of isopropanol were added and incubated at −20° C. for 2 h or O/N. Next, RNA pellets were collected by centrifuged at 12,000 rpm at 4° C. for 15 min. then, the pellets were washed with 500 μl of 75% ethanol and dried pellet at 65° C. Lastly, 30 μl of RNase free water was added for dissolved RNA pellet. RNA concentration was measured by using nanodrop spectrophotometer (Thermo Fisher Scientific, USA). […]
Real-time PCR was used to detected growth genes in shrimp.
Reaction mixture for real-time PCR was composed of 1 μl of 100 cDNA, 5 μl of 2× qPCRBIO SyGreen mix, forward and reverse primer at final concentration 0.2 μM and adjusted volume up to 10 μl by nuclease free water. […] The relative fold gene expression level was calculated by using the formula below: […]

[7] = all testing locations in Vietnam, 2020-2021

Which results are given for “silicic acid [bioavailable silicic acid compound]”?
average weight gain of the shrimps compared to control pond ([1]; first experiments, 2017, brackish ponds, Gujarat): 26%; increase (average weight gain) compared to control ([1]; second trial): 17.5%; average yield increase of shrimps (whiteleg shrimps [2]; 8 ponds, 1.5 liters of 2.5% product every 15 days, compared to control): 18.3%; food conversion rate (FCR) (whiteleg shrimps [2]; average of treated ponds (control ponds 1.52)): 1.45; environment, growth, survival, and energy efficiency of shrimp production (whiteleg shrimp; Central Vietnam): remarkably good results; higher yields (average) (whiteleg shrimp; [7]): 18.7%; larger shrimps (average) (whiteleg shrimp; [7]): 14%; overall yield increase (compared to control) [3]: 18.4%; increase of overall yield (Pangasius hypophthalmus; both treatments pooled): 16.6%; overall yield (Pangasius hypophthalmus; both treatments pooled (from 11.400 kg/ha/year)): 13.300 kg/ha/year; trypsin gene expression relative to housekeeping gene (trypsin gene): down regulation; average yield increase of shrimps (whiteleg shrimps [4]; 4 ponds, application every 3 days, brackish water): 24.27%; feed conversion rate (FCR) (whiteleg shrimps [4]; average of treated ponds (control ponds 1.5)): 1.37; overall increase of the yield (whiteleg shrimps [5]): 19%; average (mean) weight of shrimp at end of trial ([6]; 8-weeks growth trial, FIG. 1 (control 9.48)): 12.49 g; Apparent net protein utilization (%) ([6]; 8 weeks, with silicic acid): 36.4 ± 1.4 ^A %; Average daily gain ([6]; 8 weeks, with silicic acid): 0.12 ± 0.02 g/day; Feed conversion ratio ([6]; 8 weeks, with silicic acid): 1.18 ± 0.05 ^A; Final weight (g/shrimp) ([6]; 8 weeks, with silicic acid): 12.49 ± 2.46 g/shrimp; Specific growth rate (%/day) ([6]; 8 weeks, with silicic acid): 3.21 ± 0.20 ^A %/day; Survival rate (%) ([6]; 8 weeks, with silicic acid): 69.8 ± 4.5 ^A %; Total biomass (kg of harvested shrimp) ([6]; 8 weeks, with silicic acid): 1,047 ± 208.25 ^A kg; shrimp performance under pond rearing conditions ([6]; exposed for 8 weeks): significantly better; α-amylase gene expression relative to housekeeping gene (α-amylase gene): down regulation
